Assays:
Experiment in all cases: relative viability (nuclei count vs DMSO), 5 days (fraction); higher = more cells survive
NCI-H1666 = tested on: NCI-H1666
Summary of the method: (§1)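 For relative viability, nuclei counts in treated wells were divided by those in vehicle wells. Lung cancer cell lines had been pin-tool dosed in 1536-well plates the day after seeding and cultured for 5 days, then fixed and stained in one step (final 0.05% Triton X-100, 1% formaldehyde, 1 ug/ml Hoechst) and imaged at 4×. Doses were one drug alone or a fixed anchor-drug dose plus five library-drug doses (not always all listed) in √10 steps, and values are duplicate-plate medians.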

PC-14 = tested on: PC-14
Summary of the method: as §1

NCI-H2087 = tested on: NCI-H2087
Summary of the method: as §1

LC-2-ad = tested on: LC-2-ad
Summary of the method: as §1

HCC-78 = tested on: HCC-78
Summary of the method: as §1

NCI-H2405 = tested on: NCI-H2405
Summary of the method: as §1

COR-L 105 = tested on: COR-L 105
Summary of the method: as §1

EPLC-272H = tested on: EPLC-272H
Summary of the method: as §1

NCI-H23 = tested on: NCI-H23
Summary of the method: as §1

RERF-LC-KJ = tested on: RERF-LC-KJ
Summary of the method: as §1

NCI-H1915 = tested on: NCI-H1915
Summary of the method: as §1

201T = tested on: 201T
Summary of the method: as §1

NCI-H2126 = tested on: NCI-H2126
Summary of the method: as §1

NCI-H2347 = tested on: NCI-H2347
Summary of the method: as §1

H3255 = tested on: H3255
Summary of the method: as §1

NCI-H520 = tested on: NCI-H520
Summary of the method: as §1

NCI-H650 = tested on: NCI-H650
Summary of the method: as §1

NCI-H661 = tested on: NCI-H661
Summary of the method: as §1

ChaGo-K-1 = tested on: ChaGo-K-1
Summary of the method: as §1

NCI-H647 = tested on: NCI-H647
Summary of the method: as §1

LCLC-97TM1 = tested on: LCLC-97TM1
Summary of the method: as §1

HCC-827 = tested on: HCC-827
Summary of the method: as §1

COc1cc2nccc(Oc3ccc(NC(=O)Nc4cc(C)on4)c(Cl)c3)c2cc1OC [Tivozanib] + Nc1nc2[nH]cc(CCc3ccc(C(=O)N[C@@H](CCC(=O)O)C(=O)O)cc3)c2c(=O)[nH]1 [Pemetrexed] (partner 0.2 µM)
relative viability (NCI-H1666; first compound 0.005 µM): 0.829
relative viability (NCI-H1666; first compound 0.01581 µM): 0.877
relative viability (NCI-H1666; first compound 0.05 µM): 0.932
relative viability (NCI-H1666; first compound 0.1581 µM): 0.797
relative viability (NCI-H1666; first compound 0.5 µM): 0.75
relative viability (PC-14; first compound 0.005 µM): 0.124
relative viability (PC-14; first compound 0.01581 µM): 0.138
relative viability (PC-14; first compound 0.05 µM): 0.129
relative viability (PC-14; first compound 0.1581 µM): 0.155
relative viability (PC-14; first compound 0.5 µM): 0.115
relative viability (NCI-H2087; first compound 0.005 µM): 0.654
relative viability (NCI-H2087; first compound 0.01581 µM): 0.696
relative viability (NCI-H2087; first compound 0.05 µM): 0.66
relative viability (NCI-H2087; first compound 0.1581 µM): 0.7
relative viability (NCI-H2087; first compound 0.5 µM): 0.653
relative viability (LC-2-ad; first compound 0.005 µM): 0.245
relative viability (LC-2-ad; first compound 0.01581 µM): 0.289
relative viability (LC-2-ad; first compound 0.05 µM): 0.274
relative viability (LC-2-ad; first compound 0.1581 µM): 0.286
relative viability (LC-2-ad; first compound 0.5 µM): 0.245
relative viability (HCC-78; first compound 0.005 µM): 0.925
relative viability (HCC-78; first compound 0.01581 µM): 0.924
relative viability (HCC-78; first compound 0.05 µM): 0.816
relative viability (HCC-78; first compound 0.1581 µM): 0.885
relative viability (HCC-78; first compound 0.5 µM): 0.913
relative viability (NCI-H2405; first compound 0.005 µM): 1.05
relative viability (NCI-H2405; first compound 0.01581 µM): 1.13
relative viability (NCI-H2405; first compound 0.05 µM): 1.09
relative viability (NCI-H2405; first compound 0.1581 µM): 1.01
relative viability (NCI-H2405; first compound 0.5 µM): 0.792
relative viability (COR-L 105; first compound 0.005 µM): 0.919
relative viability (COR-L 105; first compound 0.01581 µM): 1.08
relative viability (COR-L 105; first compound 0.05 µM): 1.34
relative viability (COR-L 105; first compound 0.1581 µM): 1.13
relative viability (COR-L 105; first compound 0.5 µM): 1.27
relative viability (EPLC-272H; first compound 0.005 µM): 0.337
relative viability (EPLC-272H; first compound 0.01581 µM): 0.317
relative viability (EPLC-272H; first compound 0.05 µM): 0.335
relative viability (EPLC-272H; first compound 0.1581 µM): 0.284
relative viability (EPLC-272H; first compound 0.5 µM): 0.288
relative viability (NCI-H23; first compound 0.005 µM): 0.588
relative viability (NCI-H23; first compound 0.01581 µM): 0.771
relative viability (NCI-H23; first compound 0.05 µM): 0.787
relative viability (NCI-H23; first compound 0.5 µM): 0.54
relative viability (RERF-LC-KJ; first compound 0.005 µM): 0.465
relative viability (RERF-LC-KJ; first compound 0.01581 µM): 0.441
relative viability (RERF-LC-KJ; first compound 0.05 µM): 0.479
relative viability (RERF-LC-KJ; first compound 0.1581 µM): 0.465
relative viability (RERF-LC-KJ; first compound 0.5 µM): 0.439
relative viability (NCI-H1915; first compound 0.005 µM): 0.518
relative viability (NCI-H1915; first compound 0.01581 µM): 0.467
relative viability (NCI-H1915; first compound 0.05 µM): 0.504
relative viability (NCI-H1915; first compound 0.1581 µM): 0.468
relative viability (NCI-H1915; first compound 0.5 µM): 0.46
relative viability (201T; first compound 0.005 µM): 0.314
relative viability (201T; first compound 0.01581 µM): 0.319
relative viability (201T; first compound 0.05 µM): 0.351
relative viability (201T; first compound 0.1581 µM): 0.351
relative viability (201T; first compound 0.5 µM): 0.367
relative viability (NCI-H2126; first compound 0.005 µM): 0.692
relative viability (NCI-H2126; first compound 0.01581 µM): 0.684
relative viability (NCI-H2126; first compound 0.05 µM): 0.691
relative viability (NCI-H2126; first compound 0.1581 µM): 0.582
relative viability (NCI-H2126; first compound 0.5 µM): 0.589
relative viability (NCI-H2347; first compound 0.005 µM): 0.4
relative viability (NCI-H2347; first compound 0.01581 µM): 0.458
relative viability (NCI-H2347; first compound 0.05 µM): 0.388
relative viability (NCI-H2347; first compound 0.1581 µM): 0.427
relative viability (NCI-H2347; first compound 0.5 µM): 0.487
relative viability (H3255; first compound 0.005 µM): 0.545
relative viability (H3255; first compound 0.01581 µM): 0.563
relative viability (H3255; first compound 0.05 µM): 0.583
relative viability (H3255; first compound 0.1581 µM): 0.55
relative viability (H3255; first compound 0.5 µM): 0.547
relative viability (NCI-H520; first compound 0.005 µM): 0.525
relative viability (NCI-H520; first compound 0.01581 µM): 0.572
relative viability (NCI-H520; first compound 0.05 µM): 0.552
relative viability (NCI-H520; first compound 0.1581 µM): 0.579
relative viability (NCI-H520; first compound 0.5 µM): 0.61
relative viability (NCI-H650; first compound 0.005 µM): 0.892
relative viability (NCI-H650; first compound 0.01581 µM): 0.98
relative viability (NCI-H650; first compound 0.05 µM): 0.879
relative viability (NCI-H650; first compound 0.1581 µM): 0.679
relative viability (NCI-H650; first compound 0.5 µM): 0.734
relative viability (NCI-H661; first compound 0.005 µM): 0.887
relative viability (NCI-H661; first compound 0.01581 µM): 0.928
relative viability (NCI-H661; first compound 0.05 µM): 0.922
relative viability (NCI-H661; first compound 0.1581 µM): 0.909
relative viability (NCI-H661; first compound 0.5 µM): 0.854
relative viability (ChaGo-K-1; first compound 0.005 µM): 0.235
relative viability (ChaGo-K-1; first compound 0.01581 µM): 0.271
relative viability (ChaGo-K-1; first compound 0.05 µM): 0.253
relative viability (ChaGo-K-1; first compound 0.1581 µM): 0.273
relative viability (ChaGo-K-1; first compound 0.5 µM): 0.264
relative viability (NCI-H647; first compound 0.005 µM): 0.155
relative viability (NCI-H647; first compound 0.01581 µM): 0.207
relative viability (NCI-H647; first compound 0.05 µM): 0.152
relative viability (NCI-H647; first compound 0.1581 µM): 0.189
relative viability (NCI-H647; first compound 0.5 µM): 0.149
relative viability (LCLC-97TM1; first compound 0.005 µM): 0.183
relative viability (LCLC-97TM1; first compound 0.01581 µM): 0.178
relative viability (LCLC-97TM1; first compound 0.05 µM): 0.157
relative viability (LCLC-97TM1; first compound 0.1581 µM): 0.172
relative viability (LCLC-97TM1; first compound 0.5 µM): 0.148
relative viability (HCC-827; first compound 0.005 µM): 0.266
relative viability (HCC-827; first compound 0.01581 µM): 0.255
relative viability (HCC-827; first compound 0.05 µM): 0.242
relative viability (HCC-827; first compound 0.1581 µM): 0.259
relative viability (HCC-827; first compound 0.5 µM): 0.253
